From PubChem BioAssay (NCI)
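Interpolation was linear, between the two tested concentrations surrounding the appropriate level; five concentrations were tested over 48 hours in 96-well plates. Here, GI50 denotes the concentration required for 50% inhibition of growth. TGI: concentration producing complete growth inhibition.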

Tests used:
Test in all cases: inhibition of tumour cell growth, NCI panel, 48 h
HCC-2998 colon = system: HCC-2998 colon
CAKI-1 renal = system: CAKI-1 renal
KM12 colon = system: KM12 colon
DU-145 prostate = system: DU-145 prostate
SK-MEL-5 melanoma = system: SK-MEL-5 melanoma
NCI-H522 lung = system: NCI-H522 lung
U251 CNS = system: U251 CNS
MDA-MB-231 breast = system: MDA-MB-231 breast
OVCAR-8 ovarian = system: OVCAR-8 ovarian
BT-549 breast = system: BT-549 breast
NCI-H460 lung = system: NCI-H460 lung
NCI-H226 lung = system: NCI-H226 lung
MALME-3M melanoma = system: MALME-3M melanoma
UACC-257 melanoma = system: UACC-257 melanoma
SK-OV-3 ovarian = system: SK-OV-3 ovarian
PC-3 prostate = system: PC-3 prostate
UACC-62 melanoma = system: UACC-62 melanoma
786-0 renal = system: 786-0 renal
SF-268 CNS = system: SF-268 CNS
HCT-116 colon = system: HCT-116 colon
MOLT-4 leukemia = system: MOLT-4 leukemia
SF-539 CNS = system: SF-539 CNS
ACHN renal = system: ACHN renal
NCI/ADR-RES ovarian = system: NCI/ADR-RES ovarian
HCT-15 colon = system: HCT-15 colon
SK-MEL-28 melanoma = system: SK-MEL-28 melanoma
SR leukemia = system: SR leukemia
SNB-19 CNS = system: SNB-19 CNS
MDA-MB-435 = system: MDA-MB-435
SN12C renal = system: SN12C renal
COLO 205 colon = system: COLO 205 colon
UO-31 renal = system: UO-31 renal
HS 578T breast = system: HS 578T breast
OVCAR-4 ovarian = system: OVCAR-4 ovarian
OVCAR-3 ovarian = system: OVCAR-3 ovarian
TK-10 renal = system: TK-10 renal
HOP-92 NSCLC = system: HOP-92 NSCLC
OVCAR-5 ovarian = system: OVCAR-5 ovarian
M14 melanoma = system: M14 melanoma
HT29 colon = system: HT29 colon
MDA-N = system: MDA-N
RPMI-8226 leukemia = system: RPMI-8226 leukemia
A549 NSCLC = system: A549 NSCLC
SW-620 colon = system: SW-620 colon
EKVX NSCLC = system: EKVX NSCLC
NCI-H23 lung = system: NCI-H23 lung
LOX IMVI melanoma = system: LOX IMVI melanoma
A498 renal = system: A498 renal
SK-MEL-2 melanoma = system: SK-MEL-2 melanoma
MCF7 breast = system: MCF7 breast
SF-295 CNS = system: SF-295 CNS
CCRF-CEM leukemia = system: CCRF-CEM leukemia
K-562 leukemia = system: K-562 leukemia
IGROV1 ovarian = system: IGROV1 ovarian
HL-60(TB) leukemia = system: HL-60(TB) leukemia
RXF 393 renal = system: RXF 393 renal
T-47D breast = system: T-47D breast
HOP-62 NSCLC = system: HOP-62 NSCLC
SNB-75 CNS = system: SNB-75 CNS

## COc1ccc(N2C(=O)CSC2c2cc(OC)c(OC)c(OC)c2)cc1 (stereo not given)
HCC-2998 colon
  TGI: 39.9 µM
CAKI-1 renal
  TGI: 62.7 µM
KM12 colon
  TGI: 32.9 µM
DU-145 prostate
  TGI: 72.2 µM
SK-MEL-5 melanoma
  TGI: 87.2 µM
NCI-H522 lung
  TGI: 73.6 µM
U251 CNS
  TGI: 39 µM
MDA-MB-231 breast
  TGI: 78.1 µM
OVCAR-8 ovarian
  TGI: > 100 µM
BT-549 breast
  TGI: 52.1 µM
NCI-H460 lung
  TGI: 63.5 µM
NCI-H226 lung
  TGI: > 100 µM
MALME-3M melanoma
  TGI: 97.7 µM
UACC-257 melanoma
  TGI: 28.9 µM
SK-OV-3 ovarian
  TGI: 71 µM
PC-3 prostate
  TGI: > 100 µM
UACC-62 melanoma
  TGI: 20.9 µM
786-0 renal
  TGI: 48.4 µM
SF-268 CNS
  TGI: > 100 µM
HCT-116 colon
  TGI: 33.4 µM
MOLT-4 leukemia
  TGI: > 100 µM
SF-539 CNS
  TGI: > 100 µM
ACHN renal
  TGI: 40.9 µM
NCI/ADR-RES ovarian
  TGI: 85.6 µM
HCT-15 colon
  TGI: 44.4 µM
SK-MEL-28 melanoma
  TGI: > 100 µM
SR leukemia
  TGI: 51.3 µM
SNB-19 CNS
  TGI: 80.8 µM
MDA-MB-435
  TGI: 85.2 µM
SN12C renal
  TGI: 65.9 µM
COLO 205 colon
  TGI: 54.1 µM
UO-31 renal
  TGI: 27.1 µM
HS 578T breast
  TGI: > 100 µM
OVCAR-4 ovarian
  TGI: > 100 µM
OVCAR-3 ovarian
  TGI: 64.8 µM
TK-10 renal
  TGI: > 100 µM
HOP-92 NSCLC
  TGI: > 100 µM
OVCAR-5 ovarian
  TGI: 73.9 µM
M14 melanoma
  TGI: 57.8 µM
HT29 colon
  TGI: 57.1 µM
MDA-N
  TGI: 55.9 µM
RPMI-8226 leukemia
  TGI: > 100 µM
A549 NSCLC
  TGI: 83.4 µM
SW-620 colon
  TGI: > 100 µM
EKVX NSCLC
  TGI: > 100 µM
NCI-H23 lung
  TGI: > 100 µM
LOX IMVI melanoma
  TGI: 92.9 µM
A498 renal
  TGI: 55.3 µM
SK-MEL-2 melanoma
  TGI: > 100 µM
MCF7 breast
  TGI: > 100 µM
SF-295 CNS
  TGI: 71.9 µM
CCRF-CEM leukemia
  TGI: 35.1 µM
K-562 leukemia
  TGI: > 100 µM
IGROV1 ovarian
  TGI: > 100 µM
HL-60(TB) leukemia
  TGI: 69.8 µM

## O=c1c2c(=NCCCN3CCCC3)cc3c(=O)n(CCCN4CCCC4)c(=O)c4c(NCCCN5CCCC5)cc(c(O)n1CCCN1CCCC1)c2c4-3
HCC-2998 colon
  GI50: 6.84 µM
  TGI: 23.1 µM
CAKI-1 renal
  GI50: 10.6 µM
  TGI: 42 µM
KM12 colon
  GI50: 3.27 µM
  TGI: 12.7 µM
DU-145 prostate
  GI50: 2960 nM
  TGI: 7.79 µM
SK-MEL-5 melanoma
  GI50: 2670 nM
  TGI: 7.17 µM
NCI-H522 lung
  GI50: 1440 nM
  TGI: 5.53 µM
U251 CNS
  GI50: 647 nM
  TGI: 10.4 µM
MDA-MB-231 breast
  GI50: 4.89 µM
  TGI: 20.7 µM
OVCAR-8 ovarian
  GI50: 1740 nM
  TGI: 12.3 µM
BT-549 breast
  GI50: 14.1 µM
  TGI: 36.1 µM
NCI-H460 lung
  GI50: 1780 nM
  TGI: 4.01 µM
NCI-H226 lung
  GI50: 1070 nM
  TGI: 7.8 µM
MALME-3M melanoma
  GI50: 2730 nM
  TGI: 7.98 µM
UACC-257 melanoma
  GI50: 2980 nM
  TGI: 8.77 µM
SK-OV-3 ovarian
  GI50: 2400 nM
  TGI: 6.93 µM
PC-3 prostate
  GI50: 3.66 µM
  TGI: 36.7 µM
UACC-62 melanoma
  GI50: 2340 nM
  TGI: 5.12 µM
786-0 renal
  GI50: 12.9 µM
  TGI: > 100 µM
SF-268 CNS
  GI50: 2230 nM
  TGI: 8.66 µM
HCT-116 colon
  GI50: 2010 nM
  TGI: 6.43 µM
MOLT-4 leukemia
  GI50: 6.63 µM
  TGI: > 100 µM
SF-539 CNS
  GI50: 2420 nM
  TGI: 8.98 µM
ACHN renal
  GI50: 2550 nM
  TGI: 26.4 µM
RXF 393 renal
  GI50: 2830 nM
  TGI: 8.23 µM
NCI/ADR-RES ovarian
  GI50: 20.2 µM
  TGI: > 100 µM
T-47D breast
  GI50: 2890 nM
  TGI: 18.1 µM
HCT-15 colon
  GI50: 6.91 µM
  TGI: > 100 µM
SK-MEL-28 melanoma
  GI50: 2530 nM
  TGI: 5.31 µM
SR leukemia
  GI50: 6.88 µM
  TGI: 81.9 µM
SNB-19 CNS
  GI50: 2110 nM
  TGI: 10.6 µM
MDA-MB-435
  GI50: 3.04 µM
  TGI: 11.3 µM
SN12C renal
  GI50: 3.11 µM
  TGI: 34.2 µM
COLO 205 colon
  GI50: 1890 nM
  TGI: 4.21 µM
UO-31 renal
  GI50: 4.5 µM
  TGI: 22 µM
HS 578T breast
  GI50: 2670 nM
  TGI: 9.63 µM
OVCAR-4 ovarian
  GI50: 2730 nM
OVCAR-3 ovarian
  GI50: 2880 nM
  TGI: 7.03 µM
TK-10 renal
  GI50: 2220 nM
  TGI: 8.65 µM
HOP-92 NSCLC
  GI50: 2150 nM
  TGI: 18.8 µM
OVCAR-5 ovarian
  GI50: 1640 nM
  TGI: 4.74 µM
M14 melanoma
  GI50: 6.86 µM
  TGI: 20.3 µM
HT29 colon
  GI50: 1510 nM
  TGI: 6.49 µM
RPMI-8226 leukemia
  GI50: 4.39 µM
  TGI: 45.8 µM
A549 NSCLC
  GI50: 1450 nM
  TGI: 3.84 µM
HOP-62 NSCLC
  GI50: 1420 nM
  TGI: 4.54 µM
SW-620 colon
  GI50: 1720 nM
  TGI: 14.5 µM
EKVX NSCLC
  GI50: 2790 nM
  TGI: 12.9 µM
NCI-H23 lung
  GI50: 5.43 µM
  TGI: 24.1 µM
LOX IMVI melanoma
  GI50: 1870 nM
  TGI: 4.19 µM
A498 renal
  GI50: 2130 nM
  TGI: 4.98 µM
SK-MEL-2 melanoma
  GI50: 2220 nM
  TGI: 6.57 µM
MCF7 breast
  GI50: 1420 nM
  TGI: 10.9 µM
SF-295 CNS
  GI50: 1950 nM
  TGI: 8.61 µM
CCRF-CEM leukemia
  GI50: 5.22 µM
  TGI: 71 µM
SNB-75 CNS
  GI50: 1640 nM
  TGI: 4.1 µM
K-562 leukemia
  GI50: 3.36 µM
  TGI: > 100 µM
IGROV1 ovarian
  GI50: 3.51 µM
  TGI: 12 µM
HL-60(TB) leukemia
  GI50: 11.2 µM
  TGI: 73.5 µM
